Results published in patent US6894050B2, “5-HT receptor ligands and uses thereof” (Pfizer Inc., priority 2001, dated 2005).

Experiments:
conscious male rat = test: Intracavernosal pressure (ICP) by telemetric recording in the conscious male rat; type: in vivo
Excerpt: ICP Protocol: Intra cavernosal pressure (ICP) can be measured in the conscious rat by means of telemetric recording. A catheter is surgically implanted into the corpus cavernosum. The end of the catheter is linked to a device, which senses, processes, and transmits information digitally from within the animal. A receiver converts the radio-frequency signal from the implant to a digital pulse stream that is readable by a data collection system. The PC-based system collects telemetred data from the animal.
Surgery:—Induce and maintain general anaesthesia using 5% Isoflurane® in a carrier gas of 0.5 L/min oxygen and 1 L/min nitrous oxide to induce anaesthesia, reducing to 2% Isoflurane for maintenance anaesthesia. Administer 5 mg/kg subcutaneously (s.c.) Carprofen (Rimadyl® Large Animal Injection, 50 mg/ml, Pfizer Animal Health) at induction of anaesthesia, at end of day of surgery and on the morning of first day post-surgery to minimise pain and discomfort.
Implantation of corpus cavernosal probe:—Shave the skin of the ventral abdomen and extend to include the area around the penis and ventral scrotum. Clean and disinfect the shaved area. Place the rat in dorsal recumbency. Make a mid-line incision from the external base of the penis, running caudally for approximately 2 cm. Locate and expose the internal structure of the penis and identify the corpus cavernosum. Make a mid-line laparotomy, approximately 4 cm in length to access the abdominal cavity. Pierce the abdominal wall via the caudal incision with a suitable trocar and cannula, taking care not to damage any internal organs. Place the implant body in the abdominal cavity with the catheter orientated caudally and pass the catheter tip through the body wall via the preplaced cannula. Implant used is model TA11PA-C40, 8 mm catheter, with modified 3 mm tip (Data Sciences International Inc.). Secure the implant body to the abdominal wall using non-absorbable sutures and partially close the abdominal incision. Reflect the tip of the penis cranially and retract the caudal incision to optimise the surgical field. Carefully isolate approximately 10 mm of the internal structure of the penis from the surrounding tissue. Carefully reflect the corpus spongiosum to one side to give access to the corpus cavernosum. Access the corpus cavernosum using a modified over-the-needle catheter to puncture the tunica. Introduce the catheter tip via the preplaced catheter and advance until fully inserted. Carefully remove the access catheter and apply a suitable tissue adhesive to the insertion site. Observe for leakage. Close the subcutaneous fat layer in the caudal incision before closing with an appropriate absorbable suture. Instil approximately 5 ml of warm saline through the abdominal incision and complete closure of the mid-line incision. Close the skin incision with an appropriate absorbable suture.
Postoperative care:—Measure food and water intake and monitor bodyweight daily for at least 7 days post surgery, then 2-3 times weekly. Give Lectade® (Pfizer Animal Health) in drinking water for 3 days post surgery. House rats singly, and transfer to reverse light/dark conditions 5 days post surgery. Named Veterinary Surgeon (or Deputy) to issue a certificate of fitness to continue 2 days post surgery. Start using rats experimentally 7 days post surgery.
Experimental Procedure:—Perform experiment in room with reverse light/dark conditions. […] Take baseline reading of intra cavernosal pressure (ICP) for approximately 5 minutes. […]

[1] = tested on: anaesthetised rabbit model of erection; test: Penile ICP in anaesthetised rabbit model of erection, combination with PDE5 inhibitor; type: in vivo; conditions: 5-10 mg/kg s.c. with selective PDE5 inhibitor 1 mg/kg i.v.
Protocol: The effects of concomitant administration of compound(s) of formula (I) in combination with a PDE5 inhibitor on the penile intracavernosal pressure (ICP) in an anaesthetised rabbit model of erection can be measured according to the following protocol.
Male New Zealand rabbits (˜2.5 kg) are pre-medicated with a combination of Medetomidine (Domitor®) 0.5 ml/kg inramuscularly (i.m.), and Ketamine (Vetalar®) 0.25 ml/kg i.m. whilst maintaining oxygen intake via a face mask. The rabbits are tracheotomised using a Portex™ uncuffed endotracheal tube 3 ID (internal diameter), connected to ventilator and maintained at a ventilation rate of 30-40 breaths per minute, with an approximate tidal volume of 18-20 ml, and a maximum airway pressure of 10 cm H2O. Anaesthesia was then switched to Isoflurane® and ventilation continued with O2 at 2 liters/min. The right marginal ear vein was cannulated using a 23G or 24G catheter, and Lactated Ringer solution perfused at 0.5 ml/min. […]
The left groin area of the rabbit was shaved and a vertical incision was made approximately 5 cm in length along the thigh. […] Systolic and diastolic pressures were measured, and the mean arterial pressure calculated using the formula (diastolic×2+systolic)÷3. Heart rate was measured via the pulse oxymeter and Po-ne-mah data acquisition software system (Ponemah Physiology Platform, Gould Instrument Systems Inc). […]

## Fc1ccc(F)c(COc2cncc(N3CCNCC3)n2)c1 [Example 1-M, 6′-(2,5-Difluoro-benzyloxy)-3,4,5,6-tetrahydro-2H-[1,2′]bipyrazinyl]
Conscious male rat; 5 mg/kg s.c.
  number of erectogenic events in a 15 minute test period: significantly increased
Conscious male rat; 120 minutes after dosing
  number of erectogenic events induced at 120 minutes after dosing: no difference
Conscious male rat; conscious rat
  proerectile effects in the conscious rat: induced proerectile effects
Conscious male rat; conscious rat, 5 mg/kg s.c., 15 minute period, 60 min post injection
  Number of erectogenic events @ 60 min: 1.5 ± 0.3
Conscious male rat; conscious rat, 5 mg/kg s.c., 15 minute period, 120 min post injection
  Number of erectogenic events @ 120 min: 1.3 ± 0.5
[1]
  effects on ICP of concomitant administration with PDE5 inhibitor: beneficial effects on ICP
